{
  "source": "the supplement of paper PMC10307832",
  "assay_in_all_cases": "relative viability (nuclei count vs DMSO), 5 days (fraction); higher = more cells survive",
  "key": {"[1]": {"compound": "C1COCCN1C2=NC(=NC3=C2OC4=C3C=CC=N4)C5=CC(=CC=C5)NC(=O)C6=CN=C(C=C6)N + CC(=O)c1c(C)c2cnc(Nc3ccc(N4CCNCC4)cn3)nc2n(C2CCCC2)c1=O [Palbociclib] (partner 0.5 µM)", "method_in_brief": "(§1)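 Values are medians from duplicate plates. Each reflects relative viability, defined as the nuclei count of treated wells over that of vehicle wells. Lung cancer cell lines in 1536-well plates were pin-tool dosed one day after seeding with one drug alone or with a fixed anchor-drug dose plus five library-drug doses (not always all listed) in √10 steps, then fixed, stained and imaged at 4× after 5 days.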"}, "[2]": {"compound": "C1COCCN1C2=NC(=NC3=C2OC4=C3C=CC=N4)C5=CC(=CC=C5)NC(=O)C6=CN=C(C=C6)N + CS(=O)(=O)CCNCc1ccc(-c2ccc3ncnc(Nc4ccc(OCc5cccc(F)c5)c(Cl)c4)c3c2)o1 [Lapatinib] (partner 2 µM)", "method_in_brief": "as §1"}, "[3]": {"compound": "C1COCCN1C2=NC(=NC3=C2OC4=C3C=CC=N4)C5=CC(=CC=C5)NC(=O)C6=CN=C(C=C6)N + Nc1ncn([C@H]2C[C@H](O)[C@@H](CO)O2)c(=O)n1 [Decitabine] (partner 2 µM)", "method_in_brief": "as §1"}, "[4]": {"compound": "Nc1ccccc1NC(=O)c1ccc(CNC(=O)OCc2cccnc2)cc1 [Entinostat] + COc1cccc2cc(-c3nc([C@H]4CC[C@H](C(=O)O)CC4)n4ncnc(N)c34)[nH]c12 [OSI-027] (partner 0.5 µM)", "method_in_brief": "as §1"}},
  "data": [
    {"cell line": "UMC-11", "values": [
      {"measurement": "relative viability", "setting": "[1]; first compound 0.02 µM", "value": 0.347},
      {"measurement": "relative viability", "setting": "[1]; first compound 0.06325 µM", "value": 0.327},
      {"measurement": "relative viability", "setting": "[1]; first compound 0.2 µM", "value": 0.344},
      {"measurement": "relative viability", "setting": "[1]; first compound 0.6325 µM", "value": 0.324},
      {"measurement": "relative viability", "setting": "[1]; first compound 2 µM", "value": 0.265},
      {"measurement": "relative viability", "setting": "[2]; first compound 0.02 µM", "value": 0.927},
      {"measurement": "relative viability", "setting": "[2]; first compound 0.06325 µM", "value": 1.09},
      {"measurement": "relative viability", "setting": "[2]; first compound 0.2 µM", "value": 0.918},
      {"measurement": "relative viability", "setting": "[2]; first compound 0.6325 µM", "value": 1.06},
      {"measurement": "relative viability", "setting": "[2]; first compound 2 µM", "value": 0.822},
      {"measurement": "relative viability", "setting": "[3]; first compound 0.02 µM", "value": 0.582},
      {"measurement": "relative viability", "setting": "[3]; first compound 0.06325 µM", "value": 0.537},
      {"measurement": "relative viability", "setting": "[3]; first compound 0.2 µM", "value": 0.551},
      {"measurement": "relative viability", "setting": "[3]; first compound 0.6325 µM", "value": 0.537},
      {"measurement": "relative viability", "setting": "[3]; first compound 2 µM", "value": 0.573},
      {"measurement": "relative viability", "setting": "[4]; first compound 0.02 µM", "value": 0.445},
      {"measurement": "relative viability", "setting": "[4]; first compound 0.06325 µM", "value": 0.499},
      {"measurement": "relative viability", "setting": "[4]; first compound 0.2 µM", "value": 0.388},
      {"measurement": "relative viability", "setting": "[4]; first compound 0.6325 µM", "value": 0.207},
      {"measurement": "relative viability", "setting": "[4]; first compound 2 µM", "value": 0.213}
    ]}
  ]
}
